The nature of data set [1]: Solubility of drugs in oils/excipients. Type of data set: physicochemical. The settings on record: shake flask, 25 °C, 48 h, HPLC, n = 3; Figure S1.
For data set [2] the following is noted: ref Hu et al., 2012; cited from earlier work.

Turning to `CC(=O)O[C@@]12CO[C@@H]1C[C@H](O)[C@@]1(C)C(=O)[C@H](O)C3=C(C)[C@@H](OC(=O)[C@H](O)[C@@H](NC(=O)OC(C)(C)C)c4ccccc4)C[C@@](O)([C@@H](OC(=O)c4ccccc4)[C@H]21)C3(C)C` [DTX, Docetaxel], in data set [1], the “Solubility among the oils employed (ranking)” value was “highest solubility of 131.62 ± 17.68 in Capryol 90”. Also, the “oral bioavailability of DTX” value in data set [2] is recorded as about 5%.

(Values after article PMC6534241 (Drug Delivery, 2019).)
